Source: PubChem BioAssay (NCI)
Several values for one entry are separate records, joined by “and”; a condition that tells them apart may be missing. Equal entries are not always repeated.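 Briefly, cells in 96-well plates were exposed to five compound concentrations for 48 h, and endpoints were estimated by linear interpolation. GI50 is the concentration that inhibits growth by half. At the TGI there is no net growth.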

How the values were obtained:
Test in all cases: NCI tumour cell line growth inhibition, 48 h
[1] = test system: M19-MEL melanoma
[2] = test system: LXFL 529 NSCLC
[3] = test system: DMS 114 small cell lung
[4] = test system: DLD-1 colon
[5] = test system: KM20L2 colon
[6] = test system: XF 498 CNS
[7] = test system: HOP-18 NSCLC
[8] = test system: P388 leukemia
[9] = test system: SN12K1 renal
[10] = test system: P388/ADR leukemia
[11] = test system: RXF-631 renal

For `C/C(=N/NC(N)=S)c1ccc2ccccc2c1`, the TGI [1] was > 100 µM, the TGI [2] was > 100 µM and the TGI [3] was 49.9 µM. The TGI [4] was > 100 µM, the TGI [5] was 80.4 µM and the TGI [6] was > 100 µM.
For `COc1ccc(-c2cc(=O)c3cc4c(cc3[nH]2)OCO4)c(OC)c1OC`, the TGI [1] was > 100 µM, the TGI [2] was > 100 µM and the TGI [3] was > 100 µM. The TGI [4] was > 100 µM, the TGI [5] was > 100 µM and the TGI [7] was > 100 µM. The TGI [6] was > 100 µM.
`CN(C)C(CN)CC1=C(CC(CN)N(C)C)CCC1` (centres undefined) was tested, and the TGI [1] was > 100 µM, the TGI [8] was > 100 µM and the TGI [9] was > 100 µM. The TGI [3] was > 100 µM, the TGI [4] was > 100 µM and the TGI [10] was > 100 µM. For the same compound, the TGI [5] was > 100 µM, the TGI [7] was > 100 µM and the TGI [6] was > 100 µM.
`CCC12C[N+]3([O-])CCc4c([nH]c5ccccc45)C(C(=O)OC)(c4cc5c(cc4OC)N(C)C4C(O)(C(=O)OC)C(OC(C)=O)C6(CC)C=CCN7CCC54C76)CC(C3)C1O2` (centres undefined) was tested, and the TGI [1] was 16 µM, the TGI [2] was 24.6 µM and the TGI [3] was 4.28 µM. The TGI [4] was 30.9 µM, the TGI [5] was 1.52 µM and the TGI [7] was 47.5 µM. The TGI [6] was 15.3 µM.
In the case of `COC(=O)c1csnn1`, the TGI [1] is reported as > 100 µM, the TGI [2] is reported as > 100 µM and the TGI [3] is reported as > 100 µM. For the same compound, the TGI [5] was > 100 µM and the TGI [6] was > 100 µM.
With `NC(=O)C(=O)N/N=C1/c2ccccc2CC1C1(O)C(=O)Nc2c(Cl)cc(Cl)cc21` (centres undefined) the TGI [1] was > 100 µM, the TGI [3] was > 100 µM and the TGI [4] was > 100 µM. The TGI [5] was > 100 µM, the TGI [7] was > 100 µM and the TGI [6] was > 100 µM.
For `C=C1C(=O)OC2/C=C(\CO)C(OC(C)=O)CC(O)/C(C)=C/C(OC(=O)C(C)CC)C12` (centres undefined), the TGI [1] was 33 µM, the TGI [11] was > 100 µM and the TGI [2] was 28.3 µM. For the same compound, the TGI [3] was > 56.8 µM, the TGI [4] was 26.5 µM and the TGI [5] was 58.6 µM. The TGI [7] was 38.5 µM and the TGI [6] was 29.7 µM.
`CCOC(=O)C1=C(C(C)=O)CSC(c2ccccc2)=N1` was tested, and the TGI [1] was > 100 µM, the TGI [8] was > 100 µM and the TGI [9] was > 100 µM. For the same compound, the TGI [3] was > 100 µM, the TGI [4] was > 100 µM and the TGI [10] was > 100 µM. For the same compound, the TGI [5] was > 100 µM, the TGI [7] was > 100 µM and the TGI [6] was > 100 µM.
For `COc1cc(/C=C/C(=O)O)ccc1C(=O)O/C=C/c1ccccc1`, the TGI [1] was > 100 µM, the TGI [8] was > 100 µM and the TGI [9] was > 100 µM. For the same compound, the TGI [3] was > 100 µM, the TGI [4] was > 100 µM and the TGI [10] was 68.9 µM. The TGI [5] was > 100 µM, the TGI [7] was > 100 µM and the TGI [6] was > 100 µM.
For `O=c1c2c([nH]c3cc4c(cc13)OCO4)-c1ccccc1CC2`, the TGI [1] was > 100 µM, the TGI [11] was > 100 µM and the TGI [2] was > 100 µM. For the same compound, the TGI [3] was > 100 µM, the TGI [4] was > 100 µM and the TGI [5] was > 100 µM. The TGI [6] was > 100 µM.
Work on `COc1cc2c(cc1OC)C(N(C)C)C(c1ccccc1)=C2Cl` (centres undefined) yielded a TGI [1] of 39.1 µM, a TGI [11] of 30.5 µM and a TGI [4] of 32.3 µM. The TGI [5] was 58.6 µM and the TGI [7] was > 100 µM.
Compound `CC(C)(C)C1=Cc2cc3cc(C(C)(C)C)[nH]c(=O)c3cc2S(=O)(=O)N1` has a TGI [1] of 40.7 µM, a TGI [2] of 76.7 µM and a TGI [3] of 44.4 µM. The TGI [4] was > 100 µM.
With `CSC1CC2C(CC1(C)O)C2(C)C` (centres undefined) the TGI [1] was > 100 µM, the TGI [2] was > 100 µM and the GI50 [3] was 15.7 µM and > 100 µM. For the same compound, the TGI [3] was 72.1 µM and > 100 µM, the TGI [4] was > 100 µM and the TGI [5] was > 100 µM. For the same compound, the GI50 [6] was 16.4 µM and > 100 µM and the TGI [6] was 79.1 µM and > 100 µM.
In the case of `C/C(=C\c1ccccc1)C(=O)CCN1CCOCC1`, the TGI [1] is reported as 33.8 µM, the TGI [8] is reported as 36.1 µM and the TGI [9] is reported as 32.8 µM. The TGI [3] was 35.2 µM, the TGI [4] was 33.4 µM and the TGI [10] was > 55.1 µM. The TGI [5] was 36.1 µM, the TGI [7] was 32.3 µM and the TGI [6] was 33.3 µM.
With `COc1cc(/C=C2\C(=O)N(C(=O)Cc3ccccc3)N=C2C)ccc1O` the TGI [1] was > 100 µM, the TGI [3] was > 100 µM and the TGI [4] was > 100 µM. The TGI [7] was > 100 µM and the TGI [6] was > 100 µM.
`COc1ccccc1NC(=O)CC(=O)N1N=C(C)C(N=Nc2ccc(S(N)(=O)=O)cc2)C1=O` (centres undefined) was tested, and the TGI [1] was > 100 µM, the TGI [2] was > 100 µM and the TGI [3] was > 100 µM. The TGI [4] was > 100 µM, the TGI [5] was > 100 µM and the TGI [7] was > 100 µM. The TGI [6] was > 100 µM.
With `COCOc1ccc(OC)cc1` the TGI [1] was > 100 µM, the TGI [8] was > 100 µM and the TGI [9] was > 100 µM. For the same compound, the TGI [4] was > 100 µM, the TGI [10] was > 100 µM and the TGI [5] was > 100 µM. For the same compound, the TGI [7] was > 100 µM and the TGI [6] was > 100 µM.
